# Activity calls are given as the source filed them. The rule behind the calls is not given here.
# Legend:
# Caco-2 [1] = experiment: Anticancer activity against human Caco-2 cells assessed as cell shrinkage incubated at 0.098uM for 72 hrs by phase contrast inverted microscopic analysis; format: functional, cell-based
# HepG2 [2] = experiment: Anticancer activity against human HepG2 cells assessed as cell shrinkage incubated at 0.098uM for 72 hrs by phase contrast inverted microscopic analysis; format: functional, cell-based
# Caco-2 [3] = experiment: Induction of apoptosis in human Caco-2 cells assessed as necrotic cells incubated at 0.098 uM for 72 hrs by annexin V-FITC based propidium iodide dual staining assay (reference value: 0.02 %); format: functional
# MCF7 [4] = experiment: Anticancer activity against human MCF7 cells assessed as absence of normal spindle shape incubated at 0.098uM for 72 hrs by phase contrast inverted microscopic analysis; format: functional, cell-based
# HeLa [5] = experiment: Induction of apoptosis in human HeLa cells assessed as pro-oxidant effect by measuring free radical generation measured at 0.098 uM after 72 hrs; format: functional, cell-based
# HeLa [6] = experiment: Induction of apoptosis in human HeLa cells assessed as necrotic cells incubated at 0.098 uM for 72 hrs by annexin V-FITC based propidium iodide dual staining assay (reference value: 0%); format: functional
# Caco-2 [7] = experiment: Induction of apoptosis in human Caco-2 cells assessed as late apoptotic cells incubated at 0.098 uM for 72 hrs by annexin V-FITC based propidium iodide dual staining assay (reference value: 0.02%); format: functional
# HepG2 [8] = experiment: Induction of apoptosis in human HepG2 cells assessed as early apoptotic cells by measuring bright green patch incubated at 0.098 uM for 72 hrs by acridine orange-ethidium bromide dual staining based fluorescence microscopic analysis; format: functional, cell-based
# HepG2 [9] = experiment: Anticancer activity against human HepG2 cells assessed as smaller cells incubated at 0.098uM for 72 hrs by phase contrast inverted microscopic analysis; format: functional, cell-based
# MCF7 [10] = experiment: Induction of apoptosis in human MCF7 cells assessed as total apoptotic cells incubated at 0.017 uM for 72 hrs by annexin V-FITC based propidium iodide dual staining assay (reference value: 0.04 %); format: functional
# HeLa [11] = experiment: Induction of oxidative stress in human HeLa cells assessed as cell death by measuring redox alteration fluorescence incubated at 0.027 uM for 72 hrs in presence of dihydro dichlorofluorescein diacetate by DCFH-DA based flow cytometric analysis relative to control; format: functional
# Caco-2 [12] = experiment: Induction of apoptosis in human Caco-2 cells assessed as caspase3/7 activation at 0.017 uM using caspase-glo 3/7 as substrate relative to control; format: functional
# Caco-2 [13] = experiment: Induction of apoptosis in human Caco-2 cells assessed as late apoptotic cells incubated at 0.017 uM for 72 hrs by annexin V-FITC based propidium iodide dual staining assay (reference value: 0.02%); format: functional
# Caco-2 [14] = experiment: Induction of apoptosis in human Caco-2 cells assessed as necrotic cells incubated at 0.017 uM for 72 hrs by annexin V-FITC based propidium iodide dual staining assay (reference value: 0.02%); format: functional
# Caco-2 [15] = experiment: Anticancer activity against human Caco-2 cells assessed as losing contact with neighbouring cells incubated at 0.11 uM for 72 hrs by phase contrast inverted microscopic analysis; format: functional, cell-based
# MCF7 [16] = experiment: Induction of DNA damage in human MCF7 cells assessed as increase in p53 expression at 5 uM incubated for 24 hrs by Western blot analysis; format: functional, cell-based
# MCF7 [17] = experiment: Induction of DNA damage in human MCF7 cells assessed as reduction of p53 ubiquitination at 5 uM incubated for 24 hrs by Western blot analysis; format: functional, cell-based
# Caco-2 [18] = experiment: Induction of apoptosis in human Caco-2 cells assessed as late apoptotic cells by measuring orange to red patch incubated at 0.11 uM for 72 hrs by acridine orange-ethidium bromide dual staining based fluorescence microscopic analysis; format: functional, cell-based
# HepG2 [19] = experiment: Anticancer activity against human HepG2 cells assessed as round cells incubated at 0.11 uM for 72 hrs by phase contrast inverted microscopic analysis; format: functional, cell-based
# Caco-2 [20] = experiment: Induction of apoptosis in human Caco-2 cells assessed as late apoptotic cells incubated at 0.11 uM for 72 hrs by annexin V-FITC based propidium iodide dual staining assay (reference value: 0.02%); format: functional
# HepG2 [21] = experiment: Induction of apoptosis in human HepG2 cells assessed as total apoptotic cells incubated at 0.11 uM for 72 hrs by annexin V-FITC based propidium iodide dual staining assay (reference value: 0.99 +/- 0.02%); format: functional
# HeLa [22] = experiment: Induction of apoptosis in human HeLa cells assessed as late apoptotic cells by measuring orange to red patch incubated at 0.11 uM for 72 hrs by acridine orange-ethidium bromide dual staining based fluorescence microscopic analysis; format: functional, cell-based
# HeLa [23] = experiment: Induction of apoptosis in human HeLa cells assessed as early apoptotic cells incubated at 0.11 uM for 72 hrs by annexin V-FITC based propidium iodide dual staining assay (reference value: 2.77%); format: functional
# HeLa [24] = experiment: Induction of apoptosis in human HeLa cells assessed as viable cells incubated at 0.097 uM for 72 hrs by annexin V-FITC based propidium iodide dual staining assay (reference value: 97.23%); format: functional; conditions: read-out: Activity
# HepG2 [25] = experiment: Anticancer activity against human HepG2 cells assessed as round cells incubated at 0.097uM for 72 hrs by phase contrast inverted microscopic analysis; format: functional, cell-based
# MCF7 [26] = experiment: Anticancer activity against human MCF7 cells assessed as cell shrinkage incubated at 0.097uM for 72 hrs by phase contrast inverted microscopic analysis; format: functional, cell-based
# HepG2 [27] = experiment: Anticancer activity against human HepG2 cells assessed as absence of normal spindle shape incubated at 0.097uM for 72 hrs by phase contrast inverted microscopic analysis; format: functional, cell-based
# HepG2 [28] = experiment: Induction of apoptosis in human HepG2 cells assessed as early apoptotic cells by measuring bright green patch incubated at 0.097 uM for 72 hrs by acridine orange-ethidium bromide dual staining based fluorescence microscopic analysis; format: functional, cell-based
# MCF7 [29] = experiment: Induction of apoptosis in human MCF7 cells assessed as late apoptotic cells incubated at 0.097 uM for 72 hrs by annexin V-FITC based propidium iodide dual staining assay (reference value: 0.01%); format: functional
# Caco-2 [30] = experiment: Induction of apoptosis in human Caco-2 cells assessed as necrotic cells incubated at 0.097 uM for 72 hrs by annexin V-FITC based propidium iodide dual staining assay (reference value: 0.02%); format: functional
smiles,measurement,setting,value
O=C(CN1C(=O)CN(/N=C/c2ccc([N+](=O)[O-])o2)C1=O)c1ccc(Cl)cc1,Activity,Caco-2 [1],Active
same,Activity,HepG2 [2],Active
same,Activity,Caco-2 [3],3.37%
same,Activity,MCF7 [4],Active
same,Activity,HeLa [5],Active
same,Activity,HeLa [6],1.16%
same,Activity,Caco-2 [7],27.58%
same,Activity,HepG2 [8],Active
same,Activity,HepG2 [9],Active
O=c1[nH]cc(F)c(=O)[nH]1 [FLUOROURACIL],Activity,MCF7 [10],2.94%
same,Activity,HeLa [11],4.91%
same,Activity,Caco-2 [12],12%
same,Activity,Caco-2 [13],2.71%
same,Activity,Caco-2 [14],0.97%
C#CCN1C(=O)CN(/N=C/c2ccc([N+](=O)[O-])o2)C1=O,Activity,Caco-2 [15],Active
same,Activity,MCF7 [16],Active
same,Activity,MCF7 [17],Active
same,Activity,Caco-2 [18],Active
same,Activity,HepG2 [19],Active
same,Activity,Caco-2 [20],42.24%
same,Activity,HepG2 [21],63.15%
same,Activity,HeLa [22],Active
same,Activity,HeLa [23],9.44%
NS(=O)(=O)c1ccc(-n2cc(CN3C(=O)CN(/N=C/c4ccc([N+](=O)[O-])o4)C3=O)nn2)cc1,viability at 0.097 µM,HeLa [24],43.3%
same,Activity,HepG2 [25],Active
same,Activity,MCF7 [26],Active
same,Activity,HepG2 [27],Active
same,Activity,HepG2 [28],Active
same,Activity,MCF7 [29],60.48%
same,Activity,Caco-2 [30],13.8%

# Source: ChEMBL document CHEMBL5380816, “Inclusion of Nitrofurantoin into the Realm of Cancer Chemotherapy via Biology-Oriented Synthesis and Drug Repurposing” (J Med Chem, 2023)
